Assay results from PubChem BioAssay AID743479 (Broad Institute, 2014).
Results filed as inconclusive are left out. Activity calls are given as the source filed them.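 Rule for the calls: active = fitted curve crosses 35% inhibition of luciferase signal below 10 µM, corrected for cell viability; inconclusive = no clear call, values can overlap the other calls; inactive = activity opposite to the expected decrease, otherwise the rest.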

Tested on: not listed separately
Assay: reduction of NR0B1-luciferase signal in A673 cells – cell-based, luciferase luminescence, dry powder, dose response (AID 743479)
Settings: A673 NR0B1-luciferase reporter, viability-normalised luminescence; at 4.2 µM (top of the series)

In the case of CCN(CCO)CCCOc1ccc2c(Nc3cc(CC(=O)Nc4cccc(F)c4)[nH]n3)ncnc2c1, the activity change, negative = inhibition is reported as 0.506% (inactive).

Same assay, conditions: A673 NR0B1-luciferase reporter, viability-normalised luminescence; at 6.8 µM (top of the series)

With C=C([C@@H](O)[C@@H](C)O)[C@@H](OC)[C@]1(C)Cc2cc3cc(O[C@H]4CC(OC5CC(O)C(O)C(C)O5)C(O)C(C)O4)cc(O)c3c(O)c2C(=O)[C@H]1OC1CC(OC2CC(OC3CC(C)(O)C(O)C(C)O3)C(O)C(C)O2)C(O)C(C)O1 (stereo not given in full) the activity change, negative = inhibition was 12.4% (inactive).

Same assay, conditions: A673 NR0B1-luciferase reporter, viability-normalised luminescence; at 16 µM (top of the series)

In the case of Clc1ccc(-c2cnc3ccc(-c4ccccc4)cn23)cc1, the activity change, negative = inhibition is reported as 38.6% (inactive).

Same assay, conditions: A673 NR0B1-luciferase reporter, viability-normalised luminescence; at 68 µM (top of the series)

With C[C@]1(c2nc3c(C(N)=O)cccc3[nH]2)CCCN1 the activity change, negative = inhibition was -14.9% (inactive).
With COc1ccc(C2CNC(=O)C2)cc1OC1CCCC1 (stereo not given) the activity change, negative = inhibition was -4.33% (inactive).
In the case of COc1ccc(-c2cc(NC(C)=O)c3ncc(-c4ccc(OC)c(OC)c4)n3c2)cc1, the activity change, negative = inhibition is reported as -21.4% (inactive).
In the case of CCCCc1ccc2nc(NC(=O)OC)[nH]c2c1, the activity change, negative = inhibition is reported as -8.52% (inactive).
With COc1cc(Nc2ncc3c(n2)-c2ccc(Cl)cc2C(c2c(F)cccc2OC)=NC3)ccc1C(=O)O the activity change, negative = inhibition was 114% (inactive).

Same assay, conditions: A673 NR0B1-luciferase reporter, viability-normalised luminescence; at 135 µM (top of the series)

In the case of O=P1(NCCCl)OCCCN1CCCl (stereo not given), the activity change, negative = inhibition is reported as 11.8% (inactive).

Tested on: A673 NR0B1-luciferase reporter, viability-normalised luminescence
Assay: as above
Settings: not given

Going from Cc1ccc([N+](=O)[O-])cc1S(=O)(=O)N(C)C to COc1ccc(S(=O)(=O)N(C(C)=O)c2ccc(OC(C)=O)c3ccccc23)cc1[N+](=O)[O-], the AC35 falls from 59.7 µM to 2.81 µM (21-fold).

Going from CC[C@@]1(O)C(=O)OCc2c1cc1n(c2=O)Cc2cc3c(CN(C)C)c(O)ccc3nc2-1 to CCc1c2c(nc3ccc(O)cc13)-c1cc3c(c(=O)n1C2)COC(=O)C3(O)CC (stereo not given), the AC35 falls from 0.112 µM to 0.00781 µM (14-fold).

Compared with O=C(c1cc(Cc2n[nH]c(=O)c3ccccc23)ccc1F)N1CCN(C(=O)C2CC2)CC1, Cc1cc(Nc2cc(N3CCN(C)CC3)nc(Sc3ccc(NC(=O)C4CC4)cc3)n2)n[nH]1 is 6-fold lower in AC35: 238 µM for the first, 39.5 µM for the second.

CCC(C)(C)C(=O)O[C@H]1C[C@@H](C)C=C2C=C[C@H](C)[C@H](CC[C@@H]3C[C@@H](O)CC(=O)O3)[C@H]21 and CCC(C)C(=O)OC1CC(C)C=C2C=CC(C)C(CCC(O)CC(O)CC(=O)O)C21 (stereo not given) are within 1.5-fold of each other in AC35: 55 µM for the first, 55.5 µM for the second.

First: N#Cc1ccc(-c2ccc3c(c2)[C@H]2[C@H](CCN2S(=O)(=O)c2ccccc2F)[C@@H](CO)N3)cc1
Second: COc1ccccc1S(=O)(=O)N1CC[C@@H]2[C@@H](CO)Nc3ccc(-c4ccc(C#N)cc4)cc3[C@@H]21
The AC35 of the first is 2-fold lower: 7.82 µM for the first, 15.5 µM for the second.

COC(=O)c1ccc(C2C(C#N)=C(N)Oc3cc(N)ccc32)cc1 (stereo not given) and COc1ccc(C2C(C#N)=C(N)Oc3cc(N)ccc32)cc1 (stereo not given) are within 1.5-fold of each other in AC35: 40.2 µM for the first, 53.2 µM for the second.

Compared with COc1ccc(C2=Nn3c(nnc3-c3ccccc3Cl)SC2)cc1OC, COc1ccc(C2=Nn3c(nnc3-c3ccccc3F)SC2)cc1OC is 17-fold higher in AC35: 0.69 µM for the first, 11.5 µM for the second.

Compared with CN(C(=O)CCCOc1ccc2[nH]c(=O)ccc2c1)C1CCCCC1, COc1ccc(C(=O)CC2(O)C(=O)Nc3c(Cl)ccc(Cl)c32)cc1 (stereo not given) is 15-fold lower in AC35: 49.6 µM for the first, 3.21 µM for the second.

Going from CCOC(=O)CCNc1cc(N2CCc3ccccc3CC2)nc(-c2ccccn2)n1 to Cc1nc(Nc2ncc(C(=O)Nc3c(C)cccc3Cl)s2)cc(N2CCN(CCO)CC2)n1, the AC35 falls from 32.8 µM to 18.9 µM (1.7-fold).

First: COc1ccc(OC)c(-c2nnc3n2N=C(c2ccc(OC)c(OC)c2)CS3)c1
Second: COc1ccc(C2=Nn3c(nnc3-c3ccccc3OC)SC2)cc1OC
The AC35 of the first is 4.1-fold lower: 0.0319 µM for the first, 0.131 µM for the second.

Compared with Clc1ccccc1-c1nnc2n1N=C(c1ccc3c(c1)OCO3)CS2, COc1ccccc1-c1nnc2n1N=C(c1ccc3c(c1)OCO3)CS2 is 31-fold lower in AC35: 0.75 µM for the first, 0.0242 µM for the second.

First: N#CC1=C(N)Oc2cc(O)ccc2C1c1cccc(Br)c1 (stereo not given)
Second: N#CC1=C(N)Oc2cc(N)ccc2C1c1cccc(Br)c1 (stereo not given)
The AC35 of the first is 9.9-fold higher: 2.2 µM for the first, 0.223 µM for the second.

Going from COc1ccc(-c2cc(NC=O)c3ncc(-c4ccc(OC)c(OC)c4)n3c2)cc1 to COc1ccc(C2=Nn3c(nnc3-c3ccccc3)SC2)cc1OC, the AC35 rises from 0.778 µM to 42.7 µM (55-fold).

CC1(C)CC(c2nc(-c3ccc4ccc(-c5ccccc5)nc4c3)c3c(N)nccn23)C1 and Cn1cc(-c2ccncc2)c(-c2ccc(OCc3ccc4ccccc4n3)cc2)n1 are within 1.5-fold of each other in AC35: 37.9 µM for the first, 51.7 µM for the second.

First: N#CC1=C(N)Oc2cc(N)ccc2C1c1ccccc1Cl (stereo not given)
Second: Cc1ccccc1C1C(C#N)=C(N)Oc2cc(N)ccc21 (stereo not given)
The AC35 of the first is 1.5-fold lower: 26.6 µM for the first, 40.9 µM for the second.

First: CN1CCN(CCOc2cc(OC3CCOCC3)c3c(Nc4c(Cl)ccc5c4OCO5)ncnc3c2)CC1
Second: COc1cc(C2C(C#N)=C(N)Oc3cc(N(C)C)ccc32)cc2c1OCO2 (stereo not given)
The AC35 of the first is 93-fold higher: 17.3 µM for the first, 0.186 µM for the second.

Compared with COc1ccc(S(=O)(=O)N2CC[C@@H]3[C@@H](CO)Nc4ccc(-c5ccc(C#N)cc5)cc4[C@@H]32)cc1, COc1ccc(S(=O)(=O)N2CC[C@@H]3[C@H](CO)Nc4ccc(-c5ccc(C#N)cc5)cc4[C@@H]32)cc1 is 2.5-fold higher in AC35: 3.37 µM for the first, 8.44 µM for the second.

First: COc1ccccc1-c1nnc2n1N=C(c1ccc(O)c(O)c1)CS2
Second: COc1ccccc1C1C(C#N)=C(N)Oc2cc(N)ccc21 (stereo not given)
The AC35 of the first is 14-fold lower: 3.93 µM for the first, 53.1 µM for the second.

Compared with COc1ccc(S(=O)(=O)N2CC[C@@H]3[C@@H](CO)N(C)c4ccc(-c5ccc(F)cc5)cc4[C@@H]32)cc1, COc1ccc(-c2ccc3c(c2)[C@H]2[C@H](CCN2S(=O)(=O)c2ccc(OC)cc2)[C@@H](CO)N3C)cc1 is 1.6-fold higher in AC35: 2.85 µM for the first, 4.43 µM for the second.

COc1ccc(-c2ccc3c(c2)[C@H]2[C@H](CCN2S(=O)(=O)c2ccc(OC)cc2)[C@@H](CO)N3)cc1 and COc1ccc(S(=O)(=O)N2CC[C@@H]3[C@@H](CO)Nc4ccc(-c5cccc(C#N)c5)cc4[C@@H]32)cc1 are within 1.5-fold of each other in AC35: 3.57 µM for the first, 4.71 µM for the second.

O=C(Nc1c(Cl)cncc1Cl)c1ccc(OC(F)F)c(OCC2CC2)c1 and COc1ccc(CNc2nc(N3CCC[C@H]3CO)ncc2C(=O)NCc2ncccn2)cc1Cl are within 1.5-fold of each other in AC35: 56.9 µM for the first, 45.2 µM for the second.

Going from CN1c2ccc(-c3ccc(C#N)cc3)cc2[C@H]2[C@H](CCN2S(=O)(=O)c2cccc(F)c2)[C@H]1CO to CN1c2ccc(-c3ccc(C#N)cc3)cc2[C@H]2[C@H](CCN2S(=O)(=O)c2ccc(F)cc2)[C@H]1CO, the AC35 rises from 2.35 µM to 33.6 µM (14-fold).

First: CN(C)c1ccc2c(c1)OC(N)=C(C#N)C2c1cccc(F)c1 (stereo not given)
Second: N#CC1=C(N)Oc2cc(N)ccc2C1c1cccc(F)c1 (stereo not given)
The AC35 of the first is 39-fold lower: 0.0309 µM for the first, 1.2 µM for the second.

Going from COc1ccc(NC(=O)Nc2ccc3c(c2)C(=O)N([C@@H](C)CO)C[C@H](C)[C@H](CN(C)Cc2ccc4c(c2)OCO4)O3)cc1 to COc1cccc(S(=O)(=O)N2CC[C@@H]3[C@@H](CO)Nc4ccc(-c5ccc(C#N)cc5)cc4[C@@H]32)c1, the AC35 rises from 18.8 µM to 28.5 µM (1.5-fold).

Compared with Cc1ccc(S(=O)(=O)N2CC[C@@H]3[C@@H](CO)Nc4ccc(-c5ccc(C#N)cc5)cc4[C@@H]32)cc1, N#Cc1ccc(-c2ccc3c(c2)[C@H]2[C@H](CCN2S(=O)(=O)c2cccc(F)c2)[C@@H](CO)N3)cc1 is 3.5-fold lower in AC35: 17.2 µM for the first, 4.95 µM for the second.

COc1cccc(C2C(C#N)=C(N)Oc3cc(N)ccc32)c1 (stereo not given) and Cc1cccc(C2C(C#N)=C(N)Oc3cc(N)ccc32)c1 (stereo not given) are within 1.5-fold of each other in AC35: 0.629 µM for the first, 0.705 µM for the second.

First: N#CC1=C(N)Oc2cc(N)ccc2C12C(=O)Nc1ccc(Br)cc12 (stereo not given)
Second: N#CC1=C(N)Oc2cc(N)ccc2C1c1ccc2ccccc2c1 (stereo not given)
The AC35 of the first is 2.2-fold higher: 43.3 µM for the first, 19.4 µM for the second.

Compared with N#CC1=C(N)Oc2ccc3ccccc3c2C1c1cccc(F)c1 (stereo not given), N#CC1=C(N)Oc2cc(N)ccc2C1c1ccccc1 (stereo not given) is 17-fold higher in AC35: 0.968 µM for the first, 16.6 µM for the second.

Compared with Nc1ncnc2c1c(-c1cccc(OCc3ccccc3)c1)cn2C1CC(CN2CCCC2)C1 (stereo not given), N#CC1=C(N)Oc2cc(OC(=O)c3ccccc3)ccc2C1c1cccc(Br)c1 (stereo not given) is 4.9-fold lower in AC35: 17.3 µM for the first, 3.55 µM for the second.

N#CC1=C(N)Oc2cc(N)ccc2C1c1ccc(Cl)cc1 (stereo not given) and Cc1ccc(C2C(C#N)=C(N)Oc3cc(N)ccc32)cc1 (stereo not given) are within 1.5-fold of each other in AC35: 43 µM for the first, 54.6 µM for the second.

Compared with CC(C)N1c2ccccc2C(c2ccc(F)cc2)C1/C=C/C(O)CC(O)CC(=O)O (stereo not given), C[C@@]1(C(=O)Nc2ccc(F)nc2)CCCN1c1nc(Nc2cc(C3CC3)[nH]n2)c2cccn2n1 is 2.6-fold lower in AC35: 7.59 µM for the first, 2.9 µM for the second.

Compared with COc1cccc2c1C(=O)c1c(O)c3c(c(O)c1C2=O)C[C@@](O)(C(=O)CO)C[C@@H]3O[C@H]1C[C@H](N)[C@H](O)[C@H](C)O1, COc1cc([C@@H]2c3cc4c(cc3[C@@H](O[C@@H]3O[C@@H]5CO[C@@H](C)O[C@H]5[C@H](O)[C@H]3O)[C@H]3COC(=O)[C@H]23)OCO4)cc(OC)c1O is 5-fold lower in AC35: 15.1 µM for the first, 3.01 µM for the second.

Compared with Nc1ccn([C@@H]2O[C@H](CO)[C@H](O)C2O)c(=O)n1 (stereo not given in full), N#CC1=C(N)Oc2cc3c(cc2C1c1cccc(Br)c1)OCO3 (stereo not given) is 22-fold lower in AC35: 1.26 µM for the first, 0.0564 µM for the second.
